In patent US10040781B2, “Tank-binding kinase inhibitor compounds” (Gilead Sciences, Inc., priority 2014, dated 2018):
Like-named read-outs stand apart in the source and are kept apart here.

How the values were obtained:
[1] = target: hJAK2 (Homo sapiens (Human), UniProt O60674); test: hJAK2 LANCE TR-FRET enzymatic assay; assay type: biochemical; details: read-out: JAK2 IC50
[2] = target: TBK1 (Homo sapiens (Human), UniProt Q9UHD2); test: TBK1 TR-FRET enzymatic assay;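 note: phosphorylation of a biotinylated Ser/Thr peptide by purified full-length recombinant TBK1, read by TR-FRET after 240 min at 25 °C, IC50 is the geometric mean of at least four runs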
[3] = target: IKKε (Homo sapiens (Human), UniProt Q14164); test: IKKε TR-FRET enzymatic assay; assay type: biochemical; details: read-out: IKKe IC50
[4] = TR-FRET, 2×Km ATP, geometric mean of minimum four determinations

Chain of TBK1 (Q9UHD2 whole entry): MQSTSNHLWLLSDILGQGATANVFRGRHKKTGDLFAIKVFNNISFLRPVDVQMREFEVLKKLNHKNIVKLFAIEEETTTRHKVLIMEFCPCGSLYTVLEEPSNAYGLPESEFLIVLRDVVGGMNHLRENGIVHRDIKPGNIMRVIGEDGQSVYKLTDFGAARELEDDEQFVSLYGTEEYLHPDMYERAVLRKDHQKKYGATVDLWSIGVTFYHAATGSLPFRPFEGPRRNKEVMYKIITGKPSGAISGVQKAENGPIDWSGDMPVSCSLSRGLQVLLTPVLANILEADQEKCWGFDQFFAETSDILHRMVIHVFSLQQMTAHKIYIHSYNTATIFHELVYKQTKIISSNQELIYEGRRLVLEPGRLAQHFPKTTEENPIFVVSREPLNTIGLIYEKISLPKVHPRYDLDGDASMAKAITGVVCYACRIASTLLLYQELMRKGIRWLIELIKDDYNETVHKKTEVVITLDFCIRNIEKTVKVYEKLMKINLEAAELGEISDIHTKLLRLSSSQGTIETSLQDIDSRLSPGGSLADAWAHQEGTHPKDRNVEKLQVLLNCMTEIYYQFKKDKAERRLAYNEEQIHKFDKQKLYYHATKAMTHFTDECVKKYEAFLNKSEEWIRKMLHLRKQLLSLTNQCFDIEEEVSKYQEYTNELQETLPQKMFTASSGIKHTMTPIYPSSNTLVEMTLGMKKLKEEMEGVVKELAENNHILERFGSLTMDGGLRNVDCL
Chain of IKKε (Q14164 whole entry): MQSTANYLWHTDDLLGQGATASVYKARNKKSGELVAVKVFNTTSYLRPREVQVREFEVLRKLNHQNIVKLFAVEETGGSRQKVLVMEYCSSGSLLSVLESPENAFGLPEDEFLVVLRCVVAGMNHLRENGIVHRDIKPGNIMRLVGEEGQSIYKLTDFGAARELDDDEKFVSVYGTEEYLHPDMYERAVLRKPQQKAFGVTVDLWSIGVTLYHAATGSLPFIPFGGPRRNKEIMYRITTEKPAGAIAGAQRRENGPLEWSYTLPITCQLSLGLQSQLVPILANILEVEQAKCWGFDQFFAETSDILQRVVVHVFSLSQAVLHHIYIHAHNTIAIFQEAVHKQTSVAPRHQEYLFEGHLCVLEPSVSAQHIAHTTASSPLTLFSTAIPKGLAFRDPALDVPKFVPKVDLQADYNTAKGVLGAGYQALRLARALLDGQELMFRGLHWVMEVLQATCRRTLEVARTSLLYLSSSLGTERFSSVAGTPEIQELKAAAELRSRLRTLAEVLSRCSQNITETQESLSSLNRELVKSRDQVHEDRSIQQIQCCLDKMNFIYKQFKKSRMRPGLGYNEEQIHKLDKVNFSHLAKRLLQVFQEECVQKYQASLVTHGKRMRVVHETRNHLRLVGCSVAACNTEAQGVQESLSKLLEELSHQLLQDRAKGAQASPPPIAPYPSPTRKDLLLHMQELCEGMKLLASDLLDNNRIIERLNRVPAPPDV
Chain of hJAK2 (O60674 whole entry): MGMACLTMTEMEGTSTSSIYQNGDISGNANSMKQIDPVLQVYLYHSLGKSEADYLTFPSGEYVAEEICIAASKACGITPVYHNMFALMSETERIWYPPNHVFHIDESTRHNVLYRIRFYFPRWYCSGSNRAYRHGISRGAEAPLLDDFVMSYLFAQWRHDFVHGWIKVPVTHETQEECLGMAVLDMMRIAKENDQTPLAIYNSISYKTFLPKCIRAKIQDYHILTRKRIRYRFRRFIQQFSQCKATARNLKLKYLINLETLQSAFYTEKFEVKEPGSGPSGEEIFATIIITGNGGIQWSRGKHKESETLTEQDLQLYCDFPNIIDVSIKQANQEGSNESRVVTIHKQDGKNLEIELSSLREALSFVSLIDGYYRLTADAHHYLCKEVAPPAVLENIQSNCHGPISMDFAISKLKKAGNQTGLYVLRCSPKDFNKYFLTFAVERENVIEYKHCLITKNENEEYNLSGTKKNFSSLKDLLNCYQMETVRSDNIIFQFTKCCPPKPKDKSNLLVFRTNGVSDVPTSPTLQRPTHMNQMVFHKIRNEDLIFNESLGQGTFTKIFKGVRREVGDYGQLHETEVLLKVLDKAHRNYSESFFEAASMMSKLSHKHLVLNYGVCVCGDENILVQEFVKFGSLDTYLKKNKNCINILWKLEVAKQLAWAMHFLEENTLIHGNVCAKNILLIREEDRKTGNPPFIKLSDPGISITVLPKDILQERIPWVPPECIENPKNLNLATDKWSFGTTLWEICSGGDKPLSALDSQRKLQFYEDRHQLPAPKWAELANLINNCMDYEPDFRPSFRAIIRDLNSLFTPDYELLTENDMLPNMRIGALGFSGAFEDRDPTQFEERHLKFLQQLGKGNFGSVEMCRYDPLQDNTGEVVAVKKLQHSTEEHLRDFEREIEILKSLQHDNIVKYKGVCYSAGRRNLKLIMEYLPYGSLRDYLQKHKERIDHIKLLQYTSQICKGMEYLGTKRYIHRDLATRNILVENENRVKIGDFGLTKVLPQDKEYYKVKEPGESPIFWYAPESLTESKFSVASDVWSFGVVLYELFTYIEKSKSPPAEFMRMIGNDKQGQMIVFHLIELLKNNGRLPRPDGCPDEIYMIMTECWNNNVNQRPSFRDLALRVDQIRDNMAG

SMILES | IC50 [1] | IC50 [2] | IC50 [3] | IC50 [3, 4]
N#Cc1cc(-c2ncnc(Nc3ccc(C4CCN(C5COC5)CC4)cc3)n2)ccc1OC1CCN(C(=O)CO)CC1 [Example 56, 2-((1-(2-hydroxyacetyl)piperidin-4-yl)oxy)-5-(4-((4-(1-(oxetan-3-yl)piperidin-4-yl)phenyl)amino)-1,3,5-triazin-2-yl)benzonitrile] | > 1000 nM | 2 nM | 3 nM | –
N#Cc1cc(-c2ncnc(Nc3ccc(C(N)=O)cc3)n2)ccc1OC1CCOCC1 [Example 55] | > 1000 nM | 2 nM | 5 nM | –
N#Cc1cc(-c2ncnc(Nc3ccc(N4CCN(C5COC5)CC4)cc3)n2)ccc1OCC1CNC(=O)O1 (stereo not drawn) [Example 607, 5-(4-((4-(4-(oxetan-3-yl)piperazin-1-yl)phenyl)amino)-1,3,5-triazin-2-yl)-2-((2-oxooxazolidin-5-yl)methoxy)benzonitrile] | 161 nM | 21 nM | 16 nM | –
Cc1ncc(Nc2ncnc(-c3ccc(O[C@H]4CCN(C(=O)[C@H](C)O)C[C@H]4F)c(C#N)c3)n2)s1 [Example 570, 2-(((3R,4S)-3-fluoro-1-((S)-2-hydroxypropanoyl)piperidin-4-yl)oxy)-5-(4-((2-methylthiazol-5-yl)amino)-1,3,5-triazin-2-yl)benzonitrile] | ≥ 1000 nM | 3 nM | – | 4 nM
N#Cc1cc(-c2ncnc(Nc3ccc(N4CCN(C5COC5)CC4)cc3)n2)ccc1O[C@H]1CCN(C(=O)c2cnc(N)[nH]2)C[C@H]1F [Example 559, 2-(((3R,4S)-1-(2-amino-1H-imidazole-5-carbonyl)-3-fluoropiperidin-4-yl)oxy)-5-(4-((4-(4-(oxetan-3-yl)piperazin-1-yl)phenyl)amino)-1,3,5-triazin-2-yl)benzonitrile] | 83 nM | 5 nM | – | 2 nM
N#Cc1cc(-c2ncnc(Nc3ccc(N4CCN(C5COC5)CC4)cc3)n2)ccc1N1CCC2(CCOCC2)C1 [Example 212, 5-(4-((4-(4-(oxetan-3-yl)piperazin-1-yl)phenyl)amino)-1,3,5-triazin-2-yl)-2-(8-oxa-2-azaspiro[4.5]decan-2-yl)benzonitrile] | 137 nM | 29 nM | 63 nM | –
N#Cc1cc(-c2ncnc(Nc3cnn(C4CCNCC4)c3)n2)ccc1O[C@H]1CCCC[C@H]1F (racemic) [Example 295, rac-2-(((1S,2R)-2-fluorocyclohexyl)oxy)-5-(4-((1-(piperidin-4-yl)-1H-pyrazol-4-yl)amino)-1,3,5-triazin-2-yl)benzonitrile] | 154 nM | 24 nM | 6 nM | –
N#Cc1cc(-c2ncnc(Nc3ccc(N4CCO[C@H](CO)C4)cc3)n2)ccc1O[C@H]1CCN(C(=O)CO)C[C@H]1F [Example 232, 2-(((3R,4S)-3-fluoro-1-(2-hydroxyacetyl)piperidin-4-yl)oxy)-5-(4-((4-((S)-2-(hydroxymethyl)morpholino)phenyl)amino)-1,3,5-triazin-2-yl)benzonitrile] | 128 nM | 2 nM | 1 nM | –
C[C@H]1CN(C2COC2)CCN1c1ccc(Nc2ncnc(-c3ccc(O[C@H]4CCN(C(=O)CCO)C[C@H]4F)c(C#N)c3)n2)cc1 [Example 251, 2-(((3R,4S)-3-fluoro-1-(3-hydroxypropanoyl)piperidin-4-yl)oxy)-5-(4-((4-((S)-2-methyl-4-(oxetan-3-yl)piperazin-1-yl)phenyl)amino)-1,3,5-triazin-2-yl)benzonitrile] | 369 nM | 5 nM | 14 nM | –
N#Cc1cc(-c2ncnc(Nc3ccc(N4CCN(C5COC5)CC4)cc3)n2)ccc1OC1CCN(C(=O)[C@@H]2CCC(=O)N2)C[C@H]1F (stereo partly drawn) [Example 112, 2-(((3R)-3-fluoro-1-((S)-5-oxopyrrolidine-2-carbonyl)piperidin-4-yl)oxy)-5-(4-((4-(4-(oxetan-3-yl)piperazin-1-yl)phenyl)amino)-1,3,5-triazin-2-yl)benzonitrile] | 375 nM | 4 nM | 4 nM | –
C[C@H](O)CN1CCN(c2ccc(Nc3ncnc(-c4ccc(O[C@H]5CCN(C(=O)[C@H](C)O)C[C@H]5F)c(C#N)c4)n3)cc2)CC1 [Example 573, 2-(((3R,4S)-3-fluoro-1-((S)-2-hydroxypropanoyl)piperidin-4-yl)oxy)-5-(4-((4-(4-((S)-2-hydroxypropyl)piperazin-1-yl)phenyl)amino)-1,3,5-triazin-2-yl)benzonitrile] | 969 nM | 3 nM | – | 1 nM
CN1CCC(c2ccc(Nc3ncnc(-c4ccc(OC5CCOCC5)c(C#N)c4)n3)cc2)CC1 [Example 76, 5-(4-((4-(1-methylpiperidin-4-yl)phenyl)amino)-1,3,5-triazin-2-yl)-2-((tetrahydro-2H-pyran-4-yl)oxy)benzonitrile] | 575 nM | 1 nM | 3 nM | –
N#Cc1cc(-c2ncnc(Nc3ccc(N4CCN(C5COC5)CC4)cc3)n2)ccc1O[C@H]1CCN(C(=O)c2cn[nH]c2)C[C@H]1F [Example 356, 2-(((3R,4S)-3-fluoro-1-(1H-pyrazole-4-carbonyl)piperidin-4-yl)oxy)-5-(4-((4-(4-(oxetan-3-yl)piperazin-1-yl)phenyl)amino)-1,3,5-triazin-2-yl)benzonitrile] | 550 nM | 2 nM | 3 nM | –
COc1cc(Nc2ncnc(-c3ccc(O[C@H]4CCN(C(=O)CO)C[C@H]4F)c(C#N)c3)n2)ccc1N1CCN(C2COC2)CC1 [Example 392, 2-(((3R,4S)-3-fluoro-1-(2-hydroxyacetyl)piperidin-4-yl)oxy)-5-(4-((3-methoxy-4-(4-(oxetan-3-yl)piperazin-1-yl)phenyl)amino)-1,3,5-triazin-2-yl)benzonitrile] | 26 nM | 5 nM | 1 nM | –
N#Cc1cc(-c2ncnc(Nc3ccc(N4CCN(C5COC5)CC4)c(F)c3)n2)ccc1O[C@H]1CCN(C(=O)c2cnn[nH]2)C[C@H]1F [Example 373, 2-(((3R,4S)-3-fluoro-1-(1H-1,2,3-triazole-5-carbonyl)piperidin-4-yl)oxy)-5-(4-((3-fluoro-4-(4-(oxetan-3-yl)piperazin-1-yl)phenyl)amino)-1,3,5-triazin-2-yl)benzonitrile] | 146 nM | 2 nM | 1 nM | –

Next, values leading:

IC50 [1] | IC50 [2] | IC50 [3] | IC50 [3, 4] | SMILES
802 nM | 2 nM | 6 nM | – | N#Cc1cc(-c2ncnc(Nc3ccc(N4CCN(C5COC5)CC4)cc3)n2)ccc1OC1CCOCC1 [Example 67, 5-(4-((4-(4-(oxetan-3-yl)piperazin-1-yl)phenyl)amino)-1,3,5-triazin-2-yl)-2-((tetrahydro-2H-pyran-4-yl)oxy)benzonitrile]
165 nM | 2 nM | – | 1 nM | N#Cc1cc(-c2ncnc(Nc3ccc(N4CCN(C5COC5)CC4)cc3)n2)ccc1O[C@H]1CCN(C(=O)C(O)CO)CC1(F)F (stereo partly drawn) [Example 580, 2-(((4S)-1-(2,3-dihydroxypropanoyl)-3,3-difluoropiperidin-4-yl)oxy)-5-(4-((4-(4-(oxetan-3-yl)piperazin-1-yl)phenyl)amino)-1,3,5-triazin-2-yl)benzonitrile]
479 nM | 2 nM | – | 1 nM | C[C@H](O)C(=O)N1CC[C@H](Oc2ccc(-c3ncnc(Nc4ccc(N5CCN(CCO)CC5)cc4)n3)cc2C#N)[C@H](F)C1 [Example 583, 2-(((3R,4S)-3-fluoro-1-((S)-2-hydroxypropanoyl)piperidin-4-yl)oxy)-5-(4-((4-(4-(2-hydroxyethyl)piperazin-1-yl)phenyl)amino)-1,3,5-triazin-2-yl)benzonitrile]
69 nM | 128 nM | 175 nM | – | C[C@H](O)C(=O)N1CC[C@H](Nc2ccc(-c3ncnc(Nc4ccc(N5CCN(C6COC6)CC5)cc4)n3)cc2C#N)[C@H](F)C1 [Example 613, 2-(((3R,4S)-3-fluoro-1-((S)-2-hydroxypropanoyl)piperidin-4-yl)amino)-5-(4-((4-(4-(oxetan-3-yl)piperazin-1-yl)phenyl)amino)-1,3,5-triazin-2-yl)benzonitrile]
≥ 1000 nM | 43 nM | – | 202 nM | C[C@@H](O)C(=O)N1C[C@@H](F)[C@@H](Oc2ccc(-c3ncnc(Nc4ccc(N5CCN(C6COC6)CC5)cc4)n3)cc2C#N)C[C@@H]1C [Example 412, 2-(((2S,4S,5R)-5-fluoro-1-((R)-2-hydroxypropanoyl)-2-methylpiperidin-4-yl)oxy)-5-(4-((4-(4-(oxetan-3-yl)piperazin-1-yl)phenyl)amino)-1,3,5-triazin-2-yl)benzonitrile]
632 nM | 37 nM | 177 nM | – | C[C@H](O)C(=O)N1CCC[C@H](Oc2ccc(-c3ncnc(Nc4ccc(N5CCN(C6COC6)CC5)cc4)n3)cc2C#N)C1 [Example 128, 2-(((S)-1-((S)-2-hydroxypropanoyl)piperidin-3-yl)oxy)-5-(4-((4-(4-(oxetan-3-yl)piperazin-1-yl)phenyl)amino)-1,3,5-triazin-2-yl)benzonitrile]
98 nM | 2 nM | – | 1 nM | N#Cc1cc(-c2ncnc(Nc3ccc(N4CCN(C5COC5)CC4)cc3)n2)ccc1O[C@H]1CCN(C(=O)[C@H](O)CO)CC1(F)F [Example 582, 2-(((S)-1-((R)-2,3-dihydroxypropanoyl)-3,3-difluoropiperidin-4-yl)oxy)-5-(4-((4-(4-(oxetan-3-yl)piperazin-1-yl)phenyl)amino)-1,3,5-triazin-2-yl)benzonitrile]
≥ 1000 nM | 58 nM | – | 142 nM | C[C@H](O)C(=O)N1C[C@@H](F)[C@@H](Oc2ccc(-c3ncnc(Nc4ccc(N5CCN(C6COC6)CC5)cc4)n3)cc2C#N)C[C@@H]1C [Example 415, 2-(((2S,4S,5R)-5-fluoro-1-((S)-2-hydroxypropanoyl)-2-methylpiperidin-4-yl)oxy)-5-(4-((4-(4-(oxetan-3-yl)piperazin-1-yl)phenyl)amino)-1,3,5-triazin-2-yl)benzonitrile]
